Test results as given in patent publication US20150344426A1, “COMPOUNDS AND THERAPEUTIC USES THEREOF” (ALZHEIMER'S INSTITUTE OF AMERICA, INC., priority 2012, published 2015).
Values joined by “and” are separate entries in the source; they are usually repeats but may differ in a detail not shown here. Equal values may be shown once.

What was measured:
[1] = Stability assessment / semi-quantitative hygroscopicity in a relative humidity (RH) chamber; type: physicochemical; settings: solid in RH chamber; morphology and parent:prodrug composition
Procedure: “ND” in Table 2 refers to “No Data”. Purity was determined by HPLC. Melting point was determined by differential scanning calorimetry (“DSC”), and semi-quantitative hygroscopicity was determined in a relative humidity (“RH”) chamber.

[2] = Kinetic solubility (iSol Explorer method); type: physicochemical; settings: system solution buffer (pION), aqueous buffer, kinetic from dmso stock
Procedure: Kinetic solubility was determined using the iSol Explorer method (pION Inc.; Woburn, Mass.). Certain Example Compounds were dissolved in dimethylsulfoxide (DMSO; >99.9% ACS spectrophotometric grade; Sigma-Aldrich, St. Louis, Mo.) to a concentration of 100 mM. The DMSO stock was diluted 1:100 in system solution buffer (pION Inc. Wobum Mass.) that had been adjusted to the desired pH (5.0, 6.8, and 7.4) with either HCl or NaOH. The diluted samples in the desired buffer were incubated for 15 minutes at room temperature and filtered using 96-well plate with 0.25 mm glass fiber/1.2 μm polyethersulfone filter bottoms (Corning, Inc.; Corning, N.Y.). The filtrate is transferred to a second 96-well plate and read on a SpectraMAX 190 (Molecular Devices; Sunnyvale, Calif.) scanning from 190 to 498 nm. The data are analyzed with Sol Explorer Command version 2.2, (pION Inc. Woburn, Mass.) and the concentration reported in molarity and/or mass per volume.

[3] = system: HT1080 human fibrosarcoma cancer cells; assay: Anti-tumor activity in HT1080 human fibrosarcoma xenograft with twice daily dosing; type: in vivo; settings: for MTV increase / tumor growth inhibition relative to vehicle: 6 mg/kg twice daily for 8 days; for MTV decrease / tumor regression: 12 mg/kg twice daily for 8 days
Procedure, shortened: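 Female nude mice (Crl:NU-Fox1^nu) bearing s.c. flank tumors from 1 million HT1080 cells, randomized into cohorts of ten at median tumor volumes about 82–209 mm^3. Dosing twice daily for 7 days; tumor volumes and body weights tracked from Day 1 to Days 15–22.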

[4] = Experiment 1: hepatic portal vein samples of rats after oral Example Compound 35; type: in vivo, female Sprague-Dawley rats
Description: It is believed that Example Compound 35 metabolizes in vivo into Parent Compound A (i.e., it is believed that Example Compound 35 is a prodrug of Parent Compound A). The objective of this study was to determine the concentration of Example Compound 35 and Parent Compound A in hepatic portal vein samples of female Sprague-Dawley rats following oral administration of only Example Compound 35, and to quantify the extent of transport into hepatic portal circulation, if any, of Example Compound 35. A second objective was to determine the relative bioavailability of Parent Compound A in the portal vein following oral administration of Example Compound 35.
Experiment 1. Three female Sprague Dawley rats (200-215 g, Harlan Laboratories, Indianapolis, Ind.) with cannulae implanted surgically in the portal vein for blood sampling were used in this study. Example Compound 35, formulated in 50 mM Glycine pH 3.0 with 0.5% HPMC and 0.05% Tween-80, was administered by oral gavage (PO) at a dose of 20 mg/kg in a volume of 2 mL/kg. This dose is the molar equivalent of a 13.5 mg/kg dose of Parent Compound A. Portal blood samples were collected through the portal vein cannula from each animal at 0.25, 0.5, 1, 2, 4, and 8 hours following administration of compound. Samples were split into two fractions and one was supplemented with citrate buffer (final concentration 100 mM, pH 3.0) to stabilize Example Compound 35 and stop conversion of Example Compound 35 to Parent Compound A ex vivo during analysis. Samples were then processed to generate plasma and analyzed for Example Compound 35 by LC-MS/MS. Plasma derived from the second aliquot of blood was analyzed for Parent Compound A.
Pharmacokinetic parameters estimated for Parent Compound A included the maximum observed drug concentration (Cmax), time of maximum observed drug concentration (Tmax), apparent terminal half-life (t1/2), area under the concentration-time curve from time zero to 8 hours postdose (AUC(0-8)), and area under the concentration-time curve extrapolated to infinity (AUC(0-inf)). The bioavailability (% F) of Parent Compound A in portal vein samples relative to IV administration was also estimated.
Plasma samples were analyzed for Example Compound 35 or Parent Compound A concentration using a LC-MS/MS method. All sample runs met standard acceptance criteria for discovery purposes, and were based on a standard curve containing at least 7 points. At least half of quality control samples at each of the three concentrations tested, and two thirds of the entire quality control sample pool, were within 15% of their theoretical value. The r^2 value for each standard curve was ≧0.99. The quantitation range for the Example Compound 35 and Parent Compound A assays was 1 to 100 ng/mL and 5 to 2,500 ng/mL, respectively, using a 0.05 mL sample volume.
The data were entered into the PK software package WinNonlin® version 5.1.1. A complete data check was conducted to verify the accuracy of data entry.
Pharmacokinetic parameters were estimated on median plasma concentrations using extravascular input (PO). Nominal collection times after administration of compound were used for PK analyses. The use of a non-compartmental model provided an adequate fit of the data. Pharmacokinetic parameters estimated for Parent Compound A included the maximum observed drug concentration (Cmax), time of maximum observed drug concentration (Tmax), apparent terminal half-life (t1/2), apparent volume of distribution (Vz obs), apparent clearance (C1 obs), area under the concentration-time curve from time zero to 8 hours postdose of Example Compound 35 […], and area under the concentration-time curve extrapolated to infinity (AUC(0-inf)). Example Compound 35 was detected in only one 0.25 hour hepatic portal vein sample at 1.29 ng/mL. Any Example Compound 35 present in all of the other samples was below the quantitation limit of 1 ng/mL and pharmacokinetic parameters were not determined for those samples. […]

[5] = female rats, orally at 20 mg/kg

Q: With `O=C(NCc1ccc[n+](COC(=O)c2ccccc2)c1)Nc1ccc(OCCc2ccccc2-c2ccccc2)cc1` [Example 35, 1-[(Benzoyloxy)methyl]-3-{[({4-[2-(biphenyl-2-yl)ethoxy]phenyl}carbamoyl)amino]methyl} pyridinium] as the compound, how does the “Stability at 40° C. and 75% RH” value [1] read?
A: No change in morphology stopped at 13 days, only prodrug observed

Q: What about the “Stability at 60° C. and 75% RH” value [1] of the same compound?
A: Deliquesced at 7 days, approx 30:70 parent to prodrug observed

Q: What about the solubility at 15 min ([2]; pH 5.0, 15 minutes at room temperature) of the same compound?
A: 402 µM

Q: And the solubility at 15 min ([2]; pH 6.8, 15 minutes at room temperature)?
A: 404 µM

Q: And the solubility at 15 min ([2]; pH 7.4, 15 minutes at room temperature)?
A: 433 µM

Q: And the MTV increase ([3]; Day 9)?
A: 31%

Q: And the “tumor growth inhibition relative to vehicle” value ([3]; Day 9)?
A: 87%

Q: And the MTV increase ([3]; Day 21)?
A: 2245%

Q: And the “tumor growth inhibition relative to vehicle” value ([3]; Day 21)?
A: 78%

Q: What about the MTV decrease ([3]; Day 9) of the same compound?
A: 81%

Q: And the tumor regression ([3]; Day 9)?
A: 80%

Q: What about the MTV decrease ([3]; Day 21) of the same compound?
A: 33%

Q: And the tumor regression ([3]; Day 21)?
A: 33%

Q: And the “animals with no detectable tumors by the end of the study” value ([3]; Example Compound 35 study, 12 mg/kg, cohort of ten)?
A: Four

Q: And the animals euthanized ([3]; Example Compound 35 study, 6 and 12 mg/kg)?
A: No animals

Q: And the “anti-tumor activity in the HT1080 xenograft model (summary statement)” value ([3]; administered orally, twice daily, all doses tested)?
A: significant anti-tumor activity

Q: What about the “maximal reduction in median body weight” value ([3]; over the course of the study, all doses tested, orally twice daily) of the same compound?
A: < 15 % of the initial weight

Q: And the Tolerability ([3]; xenograft mice, all doses tested, orally twice daily)?
A: well tolerated

Q: And the “Conversion to Parent Compound A following oral administration” value [4, 5]?
A: rapidly converted

Q: And the “Transport of Example Compound 35 into the hepatic portal vein” value [4, 5]?
A: not significantly transported

Q: What about the concentration at 1 h ([4]; female, Sprague-Dawley, rat, plasma (hepatic portal vein), po, 20 mg/kg, portal vein, 1 hr after oral Example Compound 35 20 mg/kg, individual rats, * = below the quantitation limit of 1 ng/mL, read-out: [Ex. Cmp. 35]) of the same compound?
A: 0.24 ng/mL

Q: And the concentration at 2 h ([4]; female, Sprague-Dawley, rat, plasma (hepatic portal vein), po, 20 mg/kg, portal vein, 2 hr after oral Example Compound 35 20 mg/kg, individual rats, * = below the quantitation limit of 1 ng/mL, read-out: [Ex. Cmp. 35])?
A: 0.15 ng/mL

Q: And the concentration at 4 h ([4]; female, Sprague-Dawley, rat, plasma (hepatic portal vein), po, 20 mg/kg, portal vein, 4 hr after oral Example Compound 35 20 mg/kg, individual rats, * = below the quantitation limit of 1 ng/mL, read-out: [Ex. Cmp. 35])?
A: 0.13 ng/mL

Q: And the “Example Compound 35 present in all of the other portal vein samples” value ([4]; oral 20 mg/kg, all samples other than one 0.25 hour sample, quantitation limit)?
A: < 1 ng/mL

Q: And the “[Ex. Cmp. 35]” value ([4]; portal vein, 0.25 hr after oral Example Compound 35 20 mg/kg, individual rats, * = below the quantitation limit of 1 ng/mL, 20 mg/kg)?
A: 1.29 ng/mL

Q: And the “[Ex. Cmp. 35]” value ([4]; portal vein, 0.25 hr after oral Example Compound 35 20 mg/kg, individual rats, * = below the quantitation limit of 1 ng/mL, listed as Ex. Cmp. 35, 20 mg/kg)?
A: 0.38* ng/mL and 1.3 ng/mL and 0.75* ng/mL

Q: What about the “[Ex. Cmp. 35]” value ([4]; portal vein, 0.5 hr after oral Example Compound 35 20 mg/kg, individual rats, * = below the quantitation limit of 1 ng/mL, listed as Ex. Cmp. 35, 20 mg/kg) of the same compound?
A: 0.8* ng/mL and 0.32* ng/mL and 0.4* ng/mL

Q: And the “[Ex. Cmp. 35]” value ([4]; portal vein, 1 hr after oral Example Compound 35 20 mg/kg, individual rats, * = below the quantitation limit of 1 ng/mL, listed as Ex. Cmp. 35, 20 mg/kg)?
A: 0.38* ng/mL and 0.29* ng/mL

Q: And the “[Ex. Cmp. 35]” value ([4]; portal vein, 2 hr after oral Example Compound 35 20 mg/kg, individual rats, * = below the quantitation limit of 1 ng/mL, listed as Ex. Cmp. 35, 20 mg/kg)?
A: 0.3* ng/mL and No Peak

Q: And the “[Ex. Cmp. 35]” value ([4]; portal vein, 4 hr after oral Example Compound 35 20 mg/kg, individual rats, * = below the quantitation limit of 1 ng/mL, listed as Ex. Cmp. 35, 20 mg/kg)?
A: No Peak and 0.13* ng/mL

Q: What about the “[Ex. Cmp. 35]” value ([4]; portal vein, 8 hr after oral Example Compound 35 20 mg/kg, individual rats, * = below the quantitation limit of 1 ng/mL, listed as Ex. Cmp. 35, 20 mg/kg) of the same compound?
A: No Peak and 0.16* ng/mL and 0.07* ng/mL
